Laboratory results published in publication PMC10532587, “An Investigation of Structure–Activity Relationships and Cell Death Mechanisms of the Marine Alkaloids Discorhabdins in Merkel Cell Carcinoma Cells” (Marine Drugs, 2023).
Like-named read-outs stand apart in the source and are kept apart here.

How the values were obtained:
[1] = tested on: MKL-1; experiment: Cell survival by CellTiterGlo, VP-MCC line MKL-1; type: cell-based; details: VP-MCC; for IC50: MKL-1, CellTiterGlo, normalized to DMSO, read-out: IC50 (nM) MKL-1; for AUC (arbitrary units) MKL-1: area under the dose-response curve
[2] = tested on: MCC26; experiment: Cell survival by CellTiterGlo, VN-MCC line MCC26; type: cell-based; details: for IC50: CellTiterGlo, normalized to DMSO; for AUC (arbitrary units) MCC26: area under the dose-response curve
[3] = tested on: HaCaT; experiment: Cell survival by CellTiterGlo, control cells; type: cell-based, human; details: for IC50: Homo sapiens, HaCaT, control skin cell line, CellTiterGlo, normalized to DMSO, read-out: IC50 (nM) HaCaT; for AUC (arbitrary units) HaCaT: area under the dose-response curve, control cells
[4] = tested on: Waga; experiment: Cell survival by CellTiterGlo, VP-MCC line Waga; type: cell-based; details: for IC50: CellTiterGlo, normalized to DMSO; for AUC (arbitrary units) WaGa: area under the dose-response curve
[5] = tested on: MCC13; experiment: Cell survival by CellTiterGlo, VN-MCC line MCC13; type: cell-based; details: for IC50: CellTiterGlo, normalized to DMSO; for AUC (arbitrary units) MCC13: area under the dose-response curve
[6] = tested on: UISO; experiment: Cell survival by CellTiterGlo, VN-MCC line UISO; type: cell-based; details: for IC50: CellTiterGlo, normalized to DMSO; for AUC (arbitrary units) UISO: area under the dose-response curve
[7] = tested on: control (HaCaT) and Merkel cell carcinoma cell lines; experiment: Cell survival by CellTiterGlo, all seven cell lines; type: cell-based; details: for IC50: Homo sapiens, HaCaT
Experimental: Three methods were employed for assessment of MCC and control cell survival/viability after discorhabdin treatment, two metabolic assays and a cell permeability assay. For all three methods, cells were plated in 384-well plates at 2500 cells/well and treated with various concentrations of discorhabdins for various time periods. CellTiterGlo^TM (Promega, Madison, WI, USA) measures cellular ATP content and was used to estimate potency of discorhabdins in cell viability assays as previously described. Continuous monitoring of metabolic activity was accomplished using a cellular reducing potential luminescence assay, the RealTime-Glo^TM MT Cell Viability Assay (Promega, Madison, WI, USA) according to manufacturer’s instructions. Loss of cell plasma membrane integrity was assessed using a cell-impermeant molecule that becomes fluorescent upon binding DNA [82] in parallel with apoptosis detection per manufacturer’s instructions (RealTimeGlo^TM Annexin V Apoptosis and Necrosis Assay-Promega). Two additional assays of apoptotic cell death were also used. Caspase activation in response to treatment of MCC cells by discorhabdins or bortezomib (as a positive control) was measured using the CaspaseGlo® 3/7 Assay (Promega, Madison, WI, USA) according to the manufacturer’s instructions at multiple time points. Inhibition of apoptotic cell death was investigated using pre-treatment of cells with for 1 h with the pan-caspase inhibitor Z-VAD-FMK (Enzo Life Sciences, Farmingdale, NY, USA) followed by treatment with discorhabdins or bortezomib and estimation of cell viability as outlined above.
In order to compare responses among all of the discorhabdins and cell lines (98 combinations), dose–response curves were generated using identical discorhabdin dilution series. GraphPad Prism 8 (San Diego, CA, USA) software was utilized to graph dose–response data and to calculate IC50 values and area under the dose–response curves (AUC) along with 95% confidence interval estimates using four-parameter logistic nonlinear regression analysis. For further analysis and comparisons, AUC for each cell line/discorhabdin pair was visualized in a heatmap generated in R version 1.3.1073 (R Core Team (2013). R: A language and environment for statistical computing. R Foundation for Statistical Computing, Vienna, Austria, http://www.R-project.org/ (accessed on 12 January 2023).
Figure S39: Activity of discorhabdins against M CC cell lines.
The indicated discorh abd ins were ass essed for th eir ability to affect surviv al of control (H aCaT) and Merkel cell carcino ma cell lines (VN-MCC: MCC13, MCC26, UISO and VP -MCC: MKL-1, MKL-2, Wag a). Cells were plat ed at 2500 cells/well and compounds the next day. Cell survival was estimated by CellTiterGlo (normalized to untreated (DMSO) cells on the same plate). Structures w ere o btained from the supplier and/or the PubChem database or as described in the text. Number in bold in ( ) refers to structures in Figure 1 in the text. Curves were plotted and IC50 values and 95% confidence interval calculated by GraphPad software. […]

[8] = tested on: MKL-2; experiment: Cell survival by CellTiterGlo, VP-MCC line MKL-2; type: cell-based; details: for IC50: CellTiterGlo, normalized to DMSO; for AUC (arbitrary units) MKL-2: area under the dose-response curve
[9] = essentially inactive compounds, read-out: average IC50 against all the cell lines

| SMILES | IC50 [1] [nM] | AUC (arbitrary units) MKL-1 [1] [arbitrary units] | IC50 [2] [nM] | AUC (arbitrary units) MCC26 [2] [arbitrary units] | IC50 [3] [nM] | AUC (arbitrary units) HaCaT [3] [arbitrary units] | IC50 [4] [nM] | AUC (arbitrary units) WaGa [4] [arbitrary units] | IC50 [5] [nM] | AUC (arbitrary units) MCC13 [5] [arbitrary units] | IC50 [6] [nM] | AUC (arbitrary units) UISO [6] [arbitrary units] | IC50 [7, 9] [µM] | IC50 [8] [nM] | AUC (arbitrary units) MKL-2 [8] [arbitrary units] | IC50 ([7]; CellTiterGlo, 10 µM highest concentration tested, read-out: IC50, all cell lines) [µM] | activity on cell viability, in words ([7]; MCC and control cell lines) |
| --- | --- | --- | --- | --- | --- | --- | --- | --- | --- | --- | --- | --- | --- | --- | --- | --- | --- |
| Cn1cc2c3c1C(=O)C1=C(C3=NCC2)[C@]2(C=CC(=O)C(Br)=C2)CCN1 [Compound 23, (+)-(6S)-N-13-methyldiscorhabdin E] | 186 | 23.33 | 2880 | 306.3 | 2980 | 319.6 | 546 | 65.1 | 1290 | 155.7 | 781 | 90.78 | – | – | – | – | – |
| Cn1cnc(SC2=CC(=O)C=C3S[C@H]4C[C@@]23C2=C(N4)C(=O)c3[nH]cc4c3C2=NCC4)c1C[C@H](N)C(=O)O (relative stereo) [Compound 5, (+)-(6S,8S,7′S*) discorhabdin K] | 3030 | 335 | > 10000 | 841.3 | > 10000 | 944.5 | 6150 | 660.5 | > 10000 | 837.7 | 8300 | 767.7 | > 5 | – | – | – | – |
| CSC1=CC(=O)C=C2S[C@H]3C[C@@]12C1=C(N3)C(=O)c2[nH]cc3c2C1=NCC3 [Compound 7, (+)-(6R,8S) thiomethyldiscorhabdin G*/I] | 1230 | 144.5 | 7890 | 638.2 | 7960 | 745.5 | 2990 | 321.6 | 4500 | 495.1 | 3270 | 360.8 | – | – | – | – | – |
| O=C(O)CNC1C2C(=O)C=C3SC4CC31C1=C(N4)C(=O)c3[nH]cc4c3C1=[N+]2CC4 (single isomer, unassigned; (-)) [Compound 13] | 682 | 83.43 | > 6000 | 719.3 | > 10000 | 909 | 1560 | 200.7 | 3820 | 478.7 | 3420 | 436.7 | – | 2910 | 391.1 | – | – |
| O=C1C=C(S(=O)(=O)O)[C@@]2(C=CNC3=C2C2=NCCc4c[nH]c(c42)C3=O)C=C1Br [Compound 9, (+)-(6S) sulphonyl-7,8-dehydrodiscorhabdin E] | – | 917.6 | – | 793.9 | – | 911.5 | – | 949.7 | – | 882.5 | – | 914.8 | > 5 | – | – | > 10 | practically inactive |
| O=C1C=C2S[C@H]3C[C@]2(C=C1Br)C1=C(N3)C(=O)c2[nH]cc3ccnc1c23 [Compound 3, (+)-(6S,8S) discorhabdin Q] | 3440 | 389.4 | 3760 | 432.3 | 5450 | 604.2 | 3290 | 405.1 | 3500 | 419.1 | 3850 | 447.9 | – | 2040 | 350.1 | – | – |
| O=C1C2=C(C3=NCCc4c[nH]c1c43)c1c(cc(Br)c(O)c1Br)CCN2 [Compound 24, discorhabdin C phenol] | 2330 | 279.7 | 6920 | 708.7 | > 10000 | 884.9 | 5460 | 611.2 | 4640 | 528.6 | 4210 | 493.2 | – | – | – | – | – |
| O=C1C2=C3C4=[N+](CCc5c[nH]c1c54)[C@H]1C[C@@]34C[C@@H](N2)SC4=CC1=O [Compound 11, (+)-(2S,6R,8S) discorhabdin D] | 497 | 60.49 | 5850 | 653.2 | > 6000 | 715.8 | 1810 | 216.6 | 5000 | 540.6 | 3620 | 423.9 | – | 865 | 143.2 | – | – |
| O=C1C2=C(C3=NCCc4c[nH]c1c43)C1(C=C(Br)C(O)C(Br)=C1)CCN2 (stereo not drawn) [Compound 16, 3-dihydrodiscorhabdin C] | 1630 | 195.9 | 4700 | 543.3 | 4130 | 454.5 | 3200 | 370.5 | 3470 | 404 | 3090 | 375.8 | – | 1940 | 277.4 | – | – |
